The subject of the experiment is rabbit sera prepared against whole M protein. The experiment can be described thus: ELISA: peptide recognition by anti-M protein rabbit sera. It counts as binding. As to the method:
Overlapping peptides representing each M type were assessed for their immunogenicity using ELISA and dot-immunoblot.
Levels of anti-M protein antibodies in mouse sera were determined by an enzyme-linked immunosorbent assay (ELISA) using either synthetic peptides or whole M protein as antigen. Microtiter plates (DYNEX Immulon 2 HB) were coated with 10 μg/ml antigen in 10 mM phosphate-buffered saline (PBS) at 4° C. overnight. Plates were rinsed three times with wash buffer (0.05% Tween 20 in 10 mM PBS, pH 7.2) and blocked with 1% BSA in PBS for one hour at 37° C. The appropriate test sera were applied at a starting dilution of 1:1000 and serially diluted two fold down the plate in PBS. Plates were incubated at 37° C. for 30 minutes and subsequently rinsed three times. Goat anti-rabbit or goat anti-mouse Ig-peroxidase conjugate diluted 1:10,000 in PBS was added to all wells and incubated for two hours at 37° C. Plates were rinsed three times with wash buffer and freshly prepared TMB peroxidase (Kirkegaard and Perry Laboratories) was added. Reactions were quenched with 0.18 M H2SO4 after 30 minutes at room temperature and OD450 was measured with a Labsystems Multiskan plate reader using Ascent software. ELISA titers are expressed as the reciprocal of the last dilution which gave a reading OD450>0.10.
The immunoreactivity of several synthetic peptides was determined by ELISA using rabbit sera prepared against whole M protein. The synthetic peptides are representative of relatively small portions of the M protein N-terminus; therefore, it was advantageous to determine if the epitopes contained within particular peptides were immunoreactive with sera prepared against whole M protein. It was shown that the whole anti-M protein rabbit sera of the respective serotypes could bind to each of the synthetic peptides within that serotype. However, some peptides were more highly immunoreactive than others, thus being better suited for use in the animal studies.

CAAPLTRATADNKDELIKRAND [Peptide M18-1]: the “immunoreactivity by ELISA using rabbit sera prepared against whole M protein” value (“immunoreactivity by ELISA” for short) was “confirmed”.
As to “CADHPSYTAAKDEVLSKFSVPGH [Peptide M101-1]”, the “immunoreactivity by ELISA” value is “confirmed”.
As for CAEIKKPQADSAWNWPKEYNA [Peptide M4-1], the entry is “confirmed”.
Consider CAELYNKIQELEEGKAELFDK [st2967-6], for which the “immunoreactivity by ELISA” value was “confirmed”.
CAESPKSTETSANGADKLAD [Peptide M28-1]: the “immunoreactivity by ELISA” value is “confirmed”.
Regarding CAGQSAPKGTNVSADLYNSLWDE [Peptide M11-1], the “immunoreactivity by ELISA” value was “confirmed”.
Consider CDAEQNRANELEKKLSGYEKD [Peptide M82-4], for which the “immunoreactivity by ELISA” value is “confirmed”.
On to CDDRSVSTNSGSVSTPYNNLLNE [Peptide M92-1], for which the “immunoreactivity by ELISA” value is recorded as “confirmed”.
With CDENKTLREKQEEYITKIQNE [Peptide M11-3], the “immunoreactivity by ELISA” value is “confirmed”.
With CDKLADAYNTLLTEHEKLRDE [Peptide M28-3], the “immunoreactivity by ELISA” value was “confirmed”.
As for CDKLRLEKEELKTDLQKKERE [Peptide M101-4], the entry is “confirmed”; as for “CDLEEEREKLLNKLDKVEEEHKKD [Peptide M77-3]”, “confirmed”.
For the sequence CDLEEERGKLLNKLDKVEEEHK [Peptide M77-4], the “immunoreactivity by ELISA” value is given as “confirmed”.
Regarding CDLLAKHGELLSEYDALKEKQDK [Peptide M92-4], the “immunoreactivity by ELISA” value is “confirmed”.
In the case of CDNINRSVSVKDNEKELHNKIAD [Peptide M89-2], the “immunoreactivity by ELISA” value is “confirmed”.
Turning to CDNQSPALVKKEAKKLNEAEL [Peptide M73-4], the “immunoreactivity by ELISA” value is “confirmed”.
On to CDNQSPAPAPVKKEAKKLNEAE [Peptide M73-5], for which the “immunoreactivity by ELISA” value was “confirmed”.
Under CDNQSPAPVKKEAKKLNEAE [Peptide M73-1] stands “confirmed”.
For CDPQRAKEALDKYELENHDLK [Peptide M5-2], the “immunoreactivity by ELISA” value is “confirmed”.
Consider CDSAWNWPKEYNALLKENEEL [Peptide M4-2], for which the “immunoreactivity by ELISA” value is “confirmed”.
Take CDSDNINRFVSVKDNEKELHN [Peptide M89-6]: the “immunoreactivity by ELISA” value is recorded as “confirmed”.
As for CDSDNINRSVSVKDNEKELHNK [Peptide M89-1], the entry is “confirmed”; as for CDSDNSDNINRSVSVKDNEKE [Peptide M89-7], “confirmed”.
In the case of CDSSRDSSREVTNELTASMWK [Peptide M58-5], the “immunoreactivity by ELISA” value is listed as “confirmed”.
CDSSREVTNELAASMWKAQAD [Peptide M58-4]: the “immunoreactivity by ELISA” value is “confirmed”.
CDSSREVTNELTASMWKAQAD [Peptide M58-1]: the “immunoreactivity by ELISA” value was “confirmed”.
As for CDSSSRDITEAGVSKFWKSKFD [Peptide M82-1], the entry is “confirmed”.
Under CDVLNNTPHNQLRDAYAGAFRR [Peptide M41-4] stands “confirmed”.
For the sequence CEAGVSKFWKSKFDAEQNRANE [Peptide M82-3], the “immunoreactivity by ELISA” value is reported as “confirmed”.
On to CEEASNNGQLTLQHKNNALTSE [Peptide M94-1], for which the “immunoreactivity by ELISA” value is on record as “confirmed”.
Turning to CEEERTFTELPYEARYKAWKSE [Peptide M75-1], the “immunoreactivity by ELISA” value is listed as “confirmed”.
For CEEHEKVTQAREAVIREMQQR [Peptide M33-1], the “immunoreactivity by ELISA” value is “confirmed”.
Regarding CEEHPDVVAARESVLNNVR [Peptide M43-1], the “immunoreactivity by ELISA” value is given as “confirmed”.
Regarding CEELKVEREKYLSYADDKEKDPQ [Peptide M4-4], the “immunoreactivity by ELISA” value was “confirmed”.
CEGNARLAQAQEEALRDVLNN [Peptide M41-1]: the “immunoreactivity by ELISA” value is on record as “confirmed”.
Take “CEGVSVGSDASLHNRITDLEEEREK [Peptide M77-1]”: the “immunoreactivity by ELISA” value is listed as “confirmed”.
For the sequence CEIQNHQLTVENKKLKTDKEQ [Peptide M18-3], the “immunoreactivity by ELISA” value is given as “confirmed”.
As for CEKLREELQQYYALSDAKEEE [Peptide M22-6], the “immunoreactivity by ELISA” value was “confirmed”.
As to CELFEKLDKVEEEHKKVEEEHKK [Peptide M2-4], the “immunoreactivity by ELISA” value is “confirmed”.
For the sequence CELHDKIKNLEEEKAELFEKLD [Peptide M2-3], the “immunoreactivity by ELISA” value is recorded as “confirmed”.
On to CELHNEIADLEEERGEHLDKID [Peptide M89-4], for which the “immunoreactivity by ELISA” value is given as “confirmed”.
CELHNKIADLEEERGAHLDKID [Peptide M89-5]: the “immunoreactivity by ELISA” value is given as “confirmed”.
CELPYEARYKAWKSENDELREN [Peptide M75-2]: the “immunoreactivity by ELISA” value was “confirmed”.
As for CELTLQQKYDALTNENKSLRRE [Peptide M59-2], the “immunoreactivity by ELISA” value is listed as “confirmed”.
As for CELYNKIQELEEGKAELFDKLEK [Peptide M73-3], the entry is “confirmed”; as for CEMQQRGTNFGPLLASTMRDNH [Peptide M33-3], “confirmed”; as for CENHDLKTKNEGLKTENEGLK [Peptide M5-3], “confirmed”.
As for CENPDKARELLNKYDVENSMLQ [Peptide M6-3], the entry is “confirmed”; as for CENSMLQANNDNLTDQNKNLTD [Peptide M6-4], “confirmed”.
Under CEQAKNNNGELTLQQKYDALT [Peptide M59-1] stands “confirmed”.
As to CESKLINTLTDENEKLREELQQ [Peptide M22-3], the “immunoreactivity by ELISA” value is “confirmed”.
As to CESLRREKDRYLYEKEELEKK [Peptide M94-3], the “immunoreactivity by ELISA” value is listed as “confirmed”.
For the sequence CESSNISQESKLINTLTDENEK [Peptide M22-2], the “immunoreactivity by ELISA” value is reported as “confirmed”.
On to CESSNNAESSNISQESKLINT [Peptide M22-1], for which the “immunoreactivity by ELISA” value was “confirmed”.
CEYDDLLAKHGELLSEYDALK [Peptide M92-3]: the “immunoreactivity by ELISA” value is recorded as “confirmed”.
Under CHDLKTKNEGLKTENEGLKTEN [Peptide M5-9] stands “confirmed”; under CHEKVTQAREAVIREMQQRGT [Peptide M33-2], “confirmed”.
Under CHEREKNDKLSSENEGLK [Peptide M101-3] stands “confirmed”; under CHPDVVAARESVLNNVRVPGT [Peptide M43-2], “confirmed”.
Under CIRLRHHENKDLKARLENAMEV [Peptide M1-8] stands “confirmed”; under CIRNIRLRHENKDLKARLENA [Peptide M1-5], “confirmed”; under CKAKELEKQVEEYKKNYETLEK [Peptide M58-3], “confirmed”.
With CKAWKSENDELRENYRKTLDK [Peptide M75-4], the “immunoreactivity by ELISA” value was “confirmed”.
Take CKDELIKRKELTIIEIQNHQL [Peptide M18-5]: the “immunoreactivity by ELISA” value is given as “confirmed”.
Take CKDEVLSKFSVPGHVWAHERE [Peptide M101-2]: the “immunoreactivity by ELISA” value is “confirmed”.
In the case of CKENEELKVEREKYLSYADDK [Peptide M4-3], the “immunoreactivity by ELISA” value is on record as “confirmed”.
Take CKFERLKQRSELYLHQYYDNK [Peptide M12-4]: the “immunoreactivity by ELISA” value is recorded as “confirmed”.
For CKFERLKRRSELYLQQYYDNK [Peptide M12-5], the “immunoreactivity by ELISA” value is “confirmed”.
Take CKGTNVSADLYNSLWDENKT [Peptide M11-2]: the “immunoreactivity by ELISA” value is “confirmed”.
In the case of CKKEAKKLNEAELYNKIQELE [Peptide M73-2], the “immunoreactivity by ELISA” value is “confirmed”.

Values taken from US8637050B2, “Peptide vaccines against group A streptococci” (The United States of America, as represented by the …, priority 2001, dated 2014).
